Experimental data from patent US20240360150A1, “ISOINDOLINONE COMPOUNDS AND USES THEREOF” (HANGZHOU GLUBIO PHARMACEUTICAL CO. LTD., priority 2021, published 2024).
Read-outs that look alike come from different tables or passages of the source.

What was measured:
Format in all cases: cell-based
[1] = biological target: T1, HiBiT-tagged SALL4 (Homo sapiens, UniProt Q96SW2+Q9UJQ4); test: Degradation assay for SALL4 (HiBiT tag bioluminescence assay)
T1 construct: expressed in transfected cells; host or cells: HT-1080 (ATCC CCL-121), lentiviral transduction
Experimental: (§1) About 10,000 cells in complete DMEM cell culture media were seeded per well. Assay plates were incubated at 37° C. with 5% CO2 for hours, followed by the assessment of IKZF1 or SALL4 degradation using the Nano-Glo HiBiT Lytic Detection Reagent (Cat #N3050, Promega) according to the manufacturer's instruction. Luminescence was then measured with an EnVision plate reader (PerkinElmer) or a PHERAstar plate reader (BMG Labtech). All IKZF1 or SALL4 degradation curves were processed using Collaborative Drug Discovery Vault softwares. IKZF1 or SALL4 levels in compound-treated wells were normalized to that of DMSO control and expressed as Percent of Control (PoC, y). A four Parameter Logistic Model was used to determine the compound's EC50 and DC50, using the following equation:
(§2) A=Ymin (lowest IKZF1 or SALL4 level normalized to DMSO control in response to compound treatment, as determined by curve fit)
(§3) B=Ymax (IKZF1 or SALL4 level in DMSO control)
(§4) C=EC50 half degradation concentration
(§5) EC50=the concentration of compound when y=(Ymax−Ymin)/2
(§6) DC50=test sample concentration when IKZF1 or SALL4 readings y=50% DMSO-treated samples
(§7) y=IKZF1 or SALL4 readings after test sample treatment (normalized to IKZF1 or SALL4 readings in DMSO-treated samples)
(§8) Dmax represents the maximum percentage of IKZF1 or SALL4 protein degradation induced by compound treatment.

[2] = biological target: T2, HiBiT-tagged IKZF1 (Homo sapiens, UniProt Q13422+Q96SW2); test: Degradation assay for IKZF1 (HiBiT tag bioluminescence assay)
T2 construct: expressed in transfected cells; host or cells: HT-1080 (ATCC CCL-121), lentiviral transduction
Experimental: as §1, §2, §3, §4, §5, §6, §7, §8

[3] = biological target: T2, HiBiT-tagged IKZF1; test: IKZF1 protein degradation kinetics (IKZF1 HiBiT degradation assay, incubation 1, 2 or 4 hours)
Description: The following is a general method for testing compounds-induced degradation of HiBiT-tagged IKZF1 or SALL4 overexpressed in a human cell line, for example, the HT-1080 cell line (American Type Culture Collection (ATCC), catalog number CCL-121). The HT-1080 IKZF1 (or SALL4) HiBiT reporter cell line was engineered via lentiviral transduction to stably overexpress GSPT1 (Δ1-138)/G575N and HiBiT-tagged IKZF1 or SALL4. The HT-1080 IKZF1 (or SALL4) HiBiT reporter cell line was maintained in DMEM media supplemented with 10% fetal bovine serum, IX sodium pyruvate, 1× non-essential amino acids, IX glutamine, 100 U/ml penicillin, and 100 μg/mL streptomycin. The HT-1080 IKZF1 (or SALL4) HiBiT reporter cells were seeded into 384-well plates (Cat #3764, Corning) pre-spotted with DMSO or test compounds. Increasing concentrations of test compounds (ranging from 15.81 pM to 500 nM or from 0.3162 nM to 10 μM at a 3.162-fold increment) or DMSO were dispensed into an empty 384-well plate using an Echo 650 Acoustic Liquid Handler (Beckman Coulter). About 10,000 cells in complete DMEM cell culture media were seeded per well. Assay plates were incubated at 37° C. with 5% CO2 for hours, followed by the assessment of IKZF1 or SALL4 degradation using the Nano-Glo HiBiT Lytic Detection Reagent (Cat #N3050, Promega) according to the manufacturer's instruction. Luminescence was then measured with an EnVision plate reader (PerkinElmer) or a PHERAstar plate reader (BMG Labtech). All IKZF1 or SALL4 degradation curves were processed using Collaborative Drug Discovery Vault softwares. IKZF1 or SALL4 levels in compound-treated wells were normalized to that of DMSO control and expressed as Percent of Control (PoC, y). A four Parameter Logistic Model was used to determine the compound's EC50 and DC50, using the following equation: […]
The IKZF1 protein degradation kinetics of compounds 9-B and 9-A was evaluated using the IKZF1 HiBiT degradation assay as described above except that the incubation time was changed to 1, 2 or 4 hours.

[4] = system: MM.1S cells; test: MM.1S cell proliferation assay (CellTiter-Glo)
Experimental: About 3,000 cells in 50 μL of culture medium were seeded per well. Assay plates were incubated at 37° C. with 5% CO2 for 120 hours. After that, 20 μL of the CellTiter-Glo Luminescent Cell Viability Assay Reagent (Cat #G7573, Promega) was added to each well and incubated at room temperature for 30 minutes. Luminescence was then measured with an EnVision plate reader (PerkinElmer) or a PHERAstar plate reader (BMG LABTECH). All percentage of cell growth inhibition curves were processed using Collaborative Drug Discovery Vault softwares. Cell viability reads in compound-treated wells were normalized to that of DMSO control and expressed as Percent of Control (PoC, y). A four Parameter Logistic Model was used to determine the compound's EC50 and DC50, using the following equation:
[formula] • wherein, • A=Ymin (lowest cell viability read normalized to DMSO control in response to compound treatment, as determined by curve fit) • B=Ymax (the maximum value, cell viability read in DMSO control) • C=EC50 half inhibitory concentration • D=Hill Slope • x=compound concentration
as §5
y=cell viability read normalized to DMSO control

[5] = HT-1080, Table 1; HT-1080 SALL4 HiBiT reporter cells; maximum percentage of protein degradation
[6] = HT-1080, Table 2; HT-1080 SALL4 HiBiT reporter cells; all compounds tested on the same day
[7] = Table 1; HT-1080 SALL4 HiBiT reporter cells; performed once with technical duplicates, some compounds tested on different days; read-out: HiBiT SALL4: DC50
[8] = Table 2; HT-1080 SALL4 HiBiT reporter cells; all compounds tested on the same day; read-out: HiBiT SALL4: DC50
[9] = HT-1080, Table 1; HT-1080 IKZF1 HiBiT reporter cells; maximum percentage of protein degradation
[10] = HT-1080, Table 2; HT-1080 IKZF1 HiBiT reporter cells; all compounds tested on the same day
[11] = Table 1; HT-1080 IKZF1 HiBiT reporter cells; performed once with technical duplicates, some compounds tested on different days; read-out: HiBiT IKZF1: DC50
[12] = Table 2; HT-1080 IKZF1 HiBiT reporter cells; all compounds tested on the same day; read-out: HiBiT IKZF1: DC50
[13] = after 1 hour of compound incubation

T2 sequence (Q13422 whole entry): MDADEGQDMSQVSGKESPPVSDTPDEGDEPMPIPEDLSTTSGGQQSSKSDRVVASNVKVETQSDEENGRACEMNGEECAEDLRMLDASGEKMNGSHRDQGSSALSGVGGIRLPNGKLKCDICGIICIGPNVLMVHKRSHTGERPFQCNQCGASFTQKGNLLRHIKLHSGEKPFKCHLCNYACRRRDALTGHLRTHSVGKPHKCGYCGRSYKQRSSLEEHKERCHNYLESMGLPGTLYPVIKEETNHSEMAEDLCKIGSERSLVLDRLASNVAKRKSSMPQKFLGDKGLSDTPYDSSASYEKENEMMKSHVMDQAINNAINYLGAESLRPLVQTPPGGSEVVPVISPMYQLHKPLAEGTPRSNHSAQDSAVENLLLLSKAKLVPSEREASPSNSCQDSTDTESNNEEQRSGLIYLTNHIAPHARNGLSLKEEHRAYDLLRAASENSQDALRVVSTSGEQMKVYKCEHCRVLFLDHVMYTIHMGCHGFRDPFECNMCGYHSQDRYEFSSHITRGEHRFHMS
T2 sequence (Q96SW2 whole entry): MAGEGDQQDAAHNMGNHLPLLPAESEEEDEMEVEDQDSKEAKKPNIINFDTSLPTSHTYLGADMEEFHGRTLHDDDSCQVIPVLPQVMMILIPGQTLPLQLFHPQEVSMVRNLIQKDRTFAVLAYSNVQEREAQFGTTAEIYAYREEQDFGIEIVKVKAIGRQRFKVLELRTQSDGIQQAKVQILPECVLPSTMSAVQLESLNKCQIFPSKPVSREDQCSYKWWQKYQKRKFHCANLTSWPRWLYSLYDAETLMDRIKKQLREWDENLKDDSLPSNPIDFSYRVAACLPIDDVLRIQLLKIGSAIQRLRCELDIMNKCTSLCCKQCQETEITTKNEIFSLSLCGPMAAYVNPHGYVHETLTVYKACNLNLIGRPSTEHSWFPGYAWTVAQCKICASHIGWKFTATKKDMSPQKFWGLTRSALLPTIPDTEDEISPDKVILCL
T2 sequence (Q16531 whole entry partner): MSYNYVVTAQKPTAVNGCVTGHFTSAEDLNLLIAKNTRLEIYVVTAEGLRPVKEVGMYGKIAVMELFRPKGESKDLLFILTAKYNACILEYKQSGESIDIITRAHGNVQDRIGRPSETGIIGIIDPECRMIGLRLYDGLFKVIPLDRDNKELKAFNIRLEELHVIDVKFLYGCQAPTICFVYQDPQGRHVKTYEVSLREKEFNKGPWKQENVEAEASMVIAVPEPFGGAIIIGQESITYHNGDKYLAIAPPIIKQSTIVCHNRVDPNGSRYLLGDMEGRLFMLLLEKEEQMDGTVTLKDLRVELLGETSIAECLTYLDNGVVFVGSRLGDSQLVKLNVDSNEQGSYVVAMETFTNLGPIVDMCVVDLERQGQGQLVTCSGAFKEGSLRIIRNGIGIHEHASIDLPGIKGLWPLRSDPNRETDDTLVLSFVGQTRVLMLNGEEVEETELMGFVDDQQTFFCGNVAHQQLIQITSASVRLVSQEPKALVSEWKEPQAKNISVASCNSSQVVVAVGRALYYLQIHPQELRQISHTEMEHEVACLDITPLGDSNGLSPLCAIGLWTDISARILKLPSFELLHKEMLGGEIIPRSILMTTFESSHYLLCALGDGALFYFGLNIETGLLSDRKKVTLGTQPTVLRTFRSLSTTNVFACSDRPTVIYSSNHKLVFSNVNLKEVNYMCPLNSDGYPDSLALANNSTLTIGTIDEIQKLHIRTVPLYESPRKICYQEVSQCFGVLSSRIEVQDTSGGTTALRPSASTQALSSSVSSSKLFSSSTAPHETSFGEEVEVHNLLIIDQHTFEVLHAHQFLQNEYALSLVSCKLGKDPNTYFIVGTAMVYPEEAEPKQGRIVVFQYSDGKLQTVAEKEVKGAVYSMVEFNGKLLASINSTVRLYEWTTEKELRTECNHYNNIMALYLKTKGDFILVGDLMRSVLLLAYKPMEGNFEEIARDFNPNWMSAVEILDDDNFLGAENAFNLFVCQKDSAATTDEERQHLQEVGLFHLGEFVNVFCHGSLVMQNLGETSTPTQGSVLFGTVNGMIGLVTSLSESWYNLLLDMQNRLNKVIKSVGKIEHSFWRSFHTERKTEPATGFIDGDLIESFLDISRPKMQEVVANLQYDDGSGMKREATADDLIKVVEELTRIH
T1 sequence (Q9UJQ4 whole entry): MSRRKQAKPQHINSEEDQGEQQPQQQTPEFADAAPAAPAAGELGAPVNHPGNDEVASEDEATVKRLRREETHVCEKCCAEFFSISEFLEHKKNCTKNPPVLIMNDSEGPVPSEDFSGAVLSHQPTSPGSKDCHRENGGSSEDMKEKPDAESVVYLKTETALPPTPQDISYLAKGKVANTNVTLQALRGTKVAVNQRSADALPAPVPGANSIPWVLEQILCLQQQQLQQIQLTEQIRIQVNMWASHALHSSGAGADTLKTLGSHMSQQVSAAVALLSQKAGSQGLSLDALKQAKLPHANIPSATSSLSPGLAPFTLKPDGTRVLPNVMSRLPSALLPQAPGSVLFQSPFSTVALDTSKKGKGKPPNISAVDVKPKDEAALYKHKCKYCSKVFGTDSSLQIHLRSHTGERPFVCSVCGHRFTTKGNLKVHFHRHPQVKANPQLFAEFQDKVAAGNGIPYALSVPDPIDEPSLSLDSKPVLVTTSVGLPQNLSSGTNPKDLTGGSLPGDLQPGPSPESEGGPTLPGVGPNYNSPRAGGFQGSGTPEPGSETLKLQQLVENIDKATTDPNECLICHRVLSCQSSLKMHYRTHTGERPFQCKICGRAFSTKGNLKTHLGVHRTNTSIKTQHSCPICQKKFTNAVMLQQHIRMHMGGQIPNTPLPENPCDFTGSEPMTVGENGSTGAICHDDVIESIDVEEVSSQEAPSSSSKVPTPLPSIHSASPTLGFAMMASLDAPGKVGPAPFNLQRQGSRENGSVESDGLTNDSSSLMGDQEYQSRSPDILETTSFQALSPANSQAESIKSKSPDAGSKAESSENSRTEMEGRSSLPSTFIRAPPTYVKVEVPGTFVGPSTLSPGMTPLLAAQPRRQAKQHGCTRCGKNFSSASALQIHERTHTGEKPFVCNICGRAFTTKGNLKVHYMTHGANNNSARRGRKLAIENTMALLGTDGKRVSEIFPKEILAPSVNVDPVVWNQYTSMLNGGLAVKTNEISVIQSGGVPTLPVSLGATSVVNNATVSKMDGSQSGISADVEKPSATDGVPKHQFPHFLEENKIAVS
T1 sequence (Q96SW2 whole entry): as the sequence (Q96SW2 whole entry) above
T1 sequence (Q16531 whole entry partner): as the sequence (Q16531 whole entry partner) above

SMILES | Dmax [1, 5] [%] | Dmax [1, 6] [%] | DC50 [1, 7] [nM] | DC50 [1, 8] [nM] | Dmax [2, 9] [%] | Dmax [2, 10] [%] | DC50 [2, 11] [nM] | DC50 [2, 12] [nM] | also measured
N#Cc1ccc(N2CCN(Cc3ccc(Cc4ccc5c6c(cc(F)cc46)C(=O)N5[C@@H]4CCC(=O)NC4=O)cc3)CC2)c(F)c1 (single isomer, unassigned) [Compound 9-A] | 55.2 | 57 | 328 | 292 | 89.9 | 93.1 | 0.23 | 0.185 | DC50 [3, 13]: ~8 nM; Dmax [3, 13]: ~68%; DC50 ([3]; after 4 hours of incubation): 0.6 nM; Dmax ([3]; after 4 hours of incubation): 88%
N#Cc1ccc(N2CCN(Cc3ccc(COc4cccc5c4CN([C@H]4CCC(=O)NC4=O)C5=O)cc3)CC2)c(F)c1 [CC-92480, reference compound] | – | – | – | – | – | – | – | – | Dmax ([1]; Table 2; HT-1080 SALL4 HiBiT reporter cells; all compounds tested on the same day): 75.8%; DC50 ([1]; read-out: HiBiT SALL4: DC50; Table 2; HT-1080 SALL4 HiBiT reporter cells; all compounds tested on the same day): 3.4 nM; Dmax ([2]; Table 2; HT-1080 IKZF1 HiBiT reporter cells; all compounds tested on the same day): 95.5%; DC50 ([2]; read-out: HiBiT IKZF1: DC50; Table 2; HT-1080 IKZF1 HiBiT reporter cells; all compounds tested on the same day): 0.105 nM; IC50 ([4]; Homo sapiens, MM1.S, antiproliferative, 120 hours incubation, CellTiter-Glo, read-out: MM.1S: IC50): 0.041 nM; Ymin ([4]; lowest cell viability read normalized to DMSO control, MM.1S, 120 hours): 7.5 (n = 7) %
N#Cc1ccc2c(c1)OC[C@H]1CN(Cc3ccc(Cc4ccc5c6c(cc(F)cc46)C(=O)N5C4CCC(=O)NC4=O)cc3)CCN21 (stereo partly shown) [Compound 1] | 57.4 | – | 117 | – | 93.2 | – | 0.025 | – | –
N#Cc1ccc2c(c1)OC[C@H]1CN(Cc3ccc(Cc4ccc5c6c(cc(F)cc46)C(=O)N5C4CCC(=O)NC4=O)cn3)CCN21 (stereo partly shown) [Compound 2] | 53.2 | – | 400 | – | 91.8 | – | 0.022 | – | –
N#Cc1ccc2c(c1)OC[C@H]1CN(Cc3ccc(Cc4ccc5c6c(cccc46)C(=O)N5C4CCC(=O)NC4=O)cc3)CCN21 (stereo partly shown) [Compound 3] | 68 | – | 2.4 | – | 93.3 | – | 0.038 | – | –
N#Cc1cnc2c(c1)OC[C@H]1CN(Cc3ccc(Cc4ccc5c6c(cccc46)C(=O)N5C4CCC(=O)NC4=O)c(F)c3)CCN21 (stereo partly shown) [Compound 4] | 68.6 | – | 1 | – | 93.5 | – | 0.026 | – | –
N#Cc1ccc2c(c1)OC[C@H]1CN(Cc3ccc(Cc4ccc5c6c(cccc46)C(=O)N5C4CCC(=O)NC4=O)cc3)CCN21 (stereo partly shown) [Compound 5] | – | – | 2 | – | – | – | 0.017 | – | HiBiT SALL4: Dmax ([1]; Table 1; HT-1080 SALL4 HiBiT reporter cells; maximum percentage of protein degradation): 76.5%; HiBiT IKZF1: Dmax ([2]; Table 1; HT-1080 IKZF1 HiBiT reporter cells; maximum percentage of protein degradation): 94.1%
O=C1CCC(N2C(=O)c3cc(F)cc4c(Cc5ccc(CN6CC(N7CCOCC7)C6)cc5F)ccc2c34)C(=O)N1 (stereo not shown) [Compound 6] | 33.7 | – | > 10000 | – | 74.6 | – | 0.74 | – | –
O=C1CCC(N2C(=O)c3cc(F)cc4c(Cc5ccc(CN6CCC7(CCCO7)CC6)cc5F)ccc2c34)C(=O)N1 (stereo not shown) [Compound 7] | 45.4 | – | > 10000 | – | 86.3 | – | 0.13 | – | –
O=C1CCC(N2C(=O)c3cc(F)cc4c(Cc5ccc(CN6CCOCC6)cc5F)ccc2c34)C(=O)N1 (stereo not shown) [Compound 8] | 34.9 | – | > 10000 | – | 75.2 | – | 2.37 | – | –
N#Cc1cnc2c(c1)OC[C@H]1CN(Cc3ccc(Cc4ccc5c6c(cc(F)cc46)C(=O)N5C4CCC(=O)NC4=O)c(F)c3)CCN21 (stereo partly shown) [Compound 10] | 29.4 | – | > 10000 | – | 88.3 | – | 0.065 | – | –
O=C1CCC(N2C(=O)c3cc(F)cc4c(Cc5ccc(CN6CCC(N7CCOCC7)CC6)cc5F)ccc2c34)C(=O)N1 (stereo not shown) [Compound 11] | 33.9 | – | > 10000 | – | 66.2 | – | 2.19 | – | –
O=C1CCC(N2C(=O)c3cc(F)cc4c(Cc5ccc(CN6CCOCC6)cc5)ccc2c34)C(=O)N1 (stereo not shown) [Compound 12] | 32.5 | – | > 10000 | – | 69.3 | – | 5.89 | – | –
CC(C)(C)N1CCN(Cc2ccc(Cc3ccc4c5c(cc(F)cc35)C(=O)N4C3CCC(=O)NC3=O)c(F)c2)CC1 (stereo not shown) [Compound 13] | 49.1 | – | > 10000 | – | 87.3 | – | 1.22 | – | –
N#Cc1ccc(N2CCN(Cc3ccc(Cc4ccc5c6c(ccc(F)c46)C(=O)N5C4CCC(=O)NC4=O)cc3)CC2)c(F)c1 (stereo not shown) [Compound 14] | – | 79.3 | – | 2 | – | 89.9 | – | 1 | –
N#Cc1ccc(N2CCN(Cc3ccc(Cc4ccc5c6c(c(F)ccc46)C(=O)N5C4CCC(=O)NC4=O)cc3)CC2)c(F)c1 (stereo not shown) [Compound 15] | – | 28.5 | – | > 10000 | – | 60.1 | – | 39.1 | –
N#Cc1ccc(N2CCN(Cc3ccc(Cc4ccc5c6c(cc(Br)cc46)C(=O)N5C4CCC(=O)NC4=O)cc3)CC2)c(F)c1 (stereo not shown) [Compound 16] | – | 65.8 | – | 772 | – | 92.2 | – | 1.23 | –
N#Cc1ccc(N2CCN(Cc3ccc(Cc4ccc5c6c(cc(Cl)cc46)C(=O)N5C4CCC(=O)NC4=O)cc3)CC2)c(F)c1 (stereo not shown) [Compound 17] | – | 11.4 | – | > 10000 | – | 41.1 | – | > 10 | –
N#Cc1ccc(N2CCN(Cc3ccc(Cc4ccc5c6c(cccc46)C(=O)N5C4CCC(=O)NC4=O)c(F)c3)CC2)c(F)c1 (stereo not shown) [Compound 18] | – | 80.5 | – | < 0.3 | – | 96.1 | – | 0.014 | –
O=C1CCC(N2C(=O)c3cccc4c(Cc5ccc(CN6CCOCC6)cc5)ccc2c34)C(=O)N1 (stereo not shown) [Compound 19] | – | 64.6 | – | 5.2 | – | 93.5 | – | 0.157 | –
N#Cc1ccc(N2CCN(Cc3ccc(Cc4ccc5c6c(cccc46)C(=O)N5C4CCC(=O)NC4=O)cc3)CC2)c(F)c1 (stereo not shown) [Compound 20] | – | 79.3 | – | < 0.3 | – | 96.9 | – | 0.014 | –
